According to US12677825B2, “Composition for protecting islet transplantation” (LG CHEM, LTD., priority 2020, dated 2026):

Key:
[1] = test system: islets from hIAPP+/− FVB/N mice; test: Alamar blue viability of islets isolated with or without Compound 1; type: cell-based, mouse; settings: 20 μM Compound 1 during islet isolation, vs non-treated group; FIG. 1A
Procedure: (§1) Mouse islets were isolated from 10- to 12-week-old hIAPP^+/− and C57BL/6 mice as described previously. Briefly, 0.8 mg/mL of collagenase P (Roche, Indianapolis, IN, USA) in Hank's buffered saline solution (HBSS, Sigma-Aldrich, St. Louis, MO, USA) with or without 20 μM Compound 1 were infused into the common bile duct for mouse pancreas digestion. Islets were purified from the digested pancreas using a Ficoll (Biochrom, Berlin, Germany) gradient and washed several times with 1 xHBSS. Isolated islets were cultured while free-floating in 10 mL of RPMI 1640 (Gibco, Grand Island, NY, USA). The medium was supplemented with 10% heat-inactivated FBS (fetal bovine serum) at 37° C. and 5% CO2 incubation prior to the ex vivo and in vivo studies.
The viability of islets was evaluated using Alamar blue staining according to the manufacturer's protocol (Invitrogen, Grand Island, NY, USA). Briefly, islets isolated from hIAPP^+/− mice were cultured at a density of 100 islet equivalents (IE) per well in 24-well plates with RPMI 1640 containing 10% FBS and 0.625% BSA with or without Compound 1. […] The fluorescence intensity of each well was measured at 570/585 nm (excitation/emission) using a GloMax-Multi Plus Detection System (Promega, Fitchburg, WI, USA), and the values were normalized to a blank.

[2] = test system: STZ-induced diabetic hIAPP+/− FVB/N mice; test: Marginal mass renal subcapsular islet transplantation, islets isolated with or without Compound 1; type: in vivo, mouse
Procedure: as §1
A marginal mass renal subcapsular islet transplantation model was used to assess the in vivo islet function of hIAPP^+/− mice. To induce diabetes, 180 mg/kg of streptozotocin (STZ, Sigma-Aldrich) was administered to 8- to 10-week-old FVB/N mice. Mice were considered to have diabetes when two consecutive blood glucose level readings were higher than 300 mg/dL. Equal amounts (400 IEQ of islets per recipient) of islets isolated from hIAPP^+/− mice were allocated to the following two groups: culture medium supplemented with 0.625% BSA (BSA group) and 0.625% BSA plus Compound 1 (BSA+Compound 1 group) to evaluate the combined effect of Compound 1 on islet mass and function during ex vivo culture. After culture for 72 hours, islets were transplanted into the renal subscapular space of diabetic hIAPP^+/− mice. The IE number was calculated using the Ricordi algorithm by classifying islets according to their diameter. After islet transplantation, non-fasting blood glucose levels were measured three times a week for the first 2 weeks and twice a week for the last 2 weeks.
At 4 weeks after transplantation, the transplantation site on the kidney of mouse were removed and embedded in paraffin. Immunohistochemical staining is briefly explained in the following. After deparaffinization, 4-μm tissue sections were stained with the polyclonal guinea pig anti-insulin antibody (1:1000, A0546, DAKO, Denmark), glucacon (1:500, ab92517, abcam, United Kingdom) and amyloid (1:2500, #44-344, Invitrogen). Stained slides were observed using an Olympus BX40 light microscope (Olympus, Japan) with […] numeric aperture and ×40/0.75 numeric aperture objectives. Photographic images were collected with a digital camera (Olympus DP50) and analyzed using the Image-Pro Plus 5.1 software.
For quantification of the DAB-labeled β-cells, all slides were imaged at 10× on a Vectra 3.0 automated quantitative pathology imaging system and analyzed using inForm software (all from Perkin-Elmer, Waltham, MA, USA). The transplanted renal tissue sections were scanned for image acquisition and then to set the transplanted tissue segmentation, a number of representative regions of transplanted islet cells and regions to be excluded from the analysis such as renal tissues were examined by learn-by-example interface. For the β-cell segmentation, a spectral library was used to identify the hematoxylin-stained nuclei and the DAB-stained cytoplasm (β-cells) within the transplanted tissue. With these training sets, the algorithm for identifying only the DAB-stained cells in the transplanted tissue was verified. All the captured 10× images were analyzed, and the DAB-stained transplanted β-cells were counted.

[3] = test system: hIAPP oligomers in hIAPP+/− islets; test: hIAPP oligomer accumulation (A11 antibody staining) after serum-deprived culture; type: cell-based, mouse; settings: 72 hours serum-deprived culture, BSA+Compound 1 vs BSA group; FIG. 6F
Procedure: Purified hIAPP^+/− FVB/N and C57BL/6J mouse were suspended in RPMI 1640 (Gibco, Grand Island, NY, USA) containing 100 IU/mL penicillin and 100 μg/mL streptomycin, and cultured at 37° C. in a fully humidified 5% CO2 atmosphere. Purified NHP islets were suspended in CMRL 1066 medium (Coming Life Sciences, Tewksbury, MA; catalog number 99-663-CV) containing 100 IU/mL penicillin and 100 μg/mL streptomycin, and cultured at 37° C. in a fully humidified 5% CO2 atmosphere. During the ex vivo culture of murine islets, three experimental groups were designated for experiments using hIAPP^+/− FVB/N and C57BL/6J mice islets: medium supplemented with 10% FBS (Tissue Culture Biologicals, Los Alamitos, CA, USA; catalog number 101; FBS group), medium supplemented with 0.625% bovine serum albumin (Qbiogene, Carlsbad, CA, USA; catalog number BSA003; BSA group), and medium supplemented with 0, 0.1, 1, 10 and 20 μM Compoun 1 plus 0.625% BSA (BSA+Compound 1 group). […]
Accumulation of hIAPP oligomers was evaluated using sections of hIAPP^+/− mice islets stained with A11 Ab (anti-oligomer antibody, Invitrogen) and insulin antibody (Dako). […] To quantify accumulation of hIAPP oligomers per islet, the proportion of A11-stained cells among total DAPI+islet cells was determined using confocal microscopy.

For `O=S1(=O)CCN(Cc2cc(NC3CCOCC3)c3[nH]c(-c4ccccc4)cc3c2)CC1` [Compound 1], the “relative ex vivo cell viability assessed by Alamar blue assay” value [1] was “significantly increased”, the diabetes reversal rate ([2]; islets isolated with Compound 1, vs control group, FIG. 3C) was “better” and the “proportion of insulin positive area in the grafted tissue” value ([2]; islets isolated with Compound 1, vs control group, FIG. 3F) was “greater”. The “glucose levels during intraperitoneal glucose tolerance test (IPGTT)” value ([2]; islets isolated with Compound 1, vs control group, FIGS. 3D, 3E) was “better”, the post-transplant glucose levels ([2]; islets isolated with Compound 1, vs non-treated group, FIG. 3B) was “markedly lower” and the “glycemia after removal of the grafted kidney” value ([2]; islets isolated with Compound 1, FIG. 3B) was “regain of hyperglycemia”. For the same compound, the “proportion of accumulation of hIAPP oligomers” value [3] was “significantly decreased”.
